Values joined by “and” are separate entries in the source; they are usually repeats but may differ in a detail not shown here. Equal values may be shown once.
Columns and labels:
[1] = Cell viability measurements; format: cell-based; parameters: Cell viability: scale not given here; settings: two replicate columns; for Cell viability: listed as 10O5
Description: 1 Source data for Supplementary Fig. 8a-f are provided as a Source Data file.

[2] = target: LC3A (Homo sapiens, UniProt Q9H492); test: Isothermal titration calorimetry (ITC); format: binding; settings: LC3A
[3] = target: T1, NanoLuc-fusion full-length LC3A (Homo sapiens, UniProt Q9H492); test: NanoBRET cellular target engagement assay in HEK293T cells; format: cell-based; settings: LC3A; 1 µM tracer; compound 4 for tracer 16, compound 3 for tracer 17
T1 construct: a fluorescent donor (in this case full length LC3A and LC3B); expressed in transfected cells; host or cells: HEK293T (ATCC; CRL-11268)
Protocol: (§1) NanoBRET cellular target engagement assay: Constructs contained the cDNA of full-length LC3A and LC3B cloned in frame with an N-terminal NanoLuc-fusion. Plasmids were transfected into HEK293T (ATCC; CRL-11268) cells using FuGENE HD (Promega, E2312) and proteins were allowed to express for 20 h. 10O5 and 8F20-based tracers were titrated to the protein as depicted in Supplementary Fig. 4d. For competition experiments, 1 µM of the tracers was pipetted into white 384-well plates (Greiner 781 207) using an Echo 550 acoustic dispenser (Labcyte) containing LC3A/LC3B expressing transfected cells at a density of 2.5 × 10^5 cells/mL in Opti-MEM without phenol red (Life Technologies). The system was allowed to equilibrate for 2 h at 37 °C and 5% CO2 prior to BRET measurements. To measure BRET, NanoBRET NanoGlo Substrate + Extracellular NanoLuc Inhibitor (Promega, N2540) was added as per the manufacturer’s protocol, and filtered luminescence was measured on a PHERAstar plate reader (BMG Labtech) equipped with a luminescence filter pair (450 nm BP filter (donor) and 610 nm LP filter (acceptor)). Competitive displacement data were then plotted using GraphPad Prism 9.3 software using a normalized 3-parameter curve fit. A detailed step-by-step protocol for this assay is described in Schwalm..

[4] = target: T2, NanoLuc-fusion full-length LC3B (Homo sapiens, UniProt Q9GZQ8); test: as above; format: cell-based; settings: LC3B; 1 µM tracer; compound 4 for tracer 16, compound 3 for tracer 17
T2 construct: a fluorescent donor (in this case full length LC3A and LC3B); expressed in transfected cells; host or cells: HEK293T (ATCC; CRL-11268)
Protocol: as §1

[5] = system: U2OS cells; test: Cell growth assay (IncuCyte confluence over 72 h); format: cell-based; parameters: key to U2OS cell growth: % of well area covered by cells (confluence)
Summary of the method: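 U2OS cells were grown in DMEM with 10% FBS for 24 h before treatment. Confluence was then tracked by IncuCyte phase imaging over 72 h and expressed as % of well area covered by cells. Each point is the average of three wells.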

In the case of `O=C1Nc2ccc(I)cc2C1=Cc1cc(Br)c(O)c(Br)c1` [compound 4], the viability at 20 µM ([1]; log concentration [M] -4.69897) is reported as 104%, the Cell viability ([1]; log concentration [M] -4.69897) is reported as 92.5568 and the viability at 7.5 µM ([1]; log concentration [M] -5.12494) is reported as 94.8%. For the same compound, the Cell viability ([1]; log concentration [M] -5.12494) was 95.6466, the viability at 2.5 µM ([1]; log concentration [M] -5.60206) was 94.2% and the Cell viability ([1]; log concentration [M] -5.60206) was 97.1871. It also gave a viability at […] ([1]; log concentration [M] -6.00436) of 95.7%, a Cell viability ([1]; log concentration [M] -6.00436) of 90.9151 and a viability at 0.3 µM ([1]; log concentration [M] -6.52288) of 104%. The Cell viability ([1]; log concentration [M] -6.52288) was 93.3208, the viability at 0.125 µM ([1]; log concentration [M] -6.90309) was 101% and the Cell viability ([1]; log concentration [M] -6.90309) was 92.1984. It also gave a viability at 0.05 µM ([1]; log concentration [M] -7.30103) of 103%, a Cell viability ([1]; log concentration [M] -7.30103) of 94.2945 and a viability at 0.01625 µM ([1]; log concentration [M] -7.78915) of 101%. The Cell viability ([1]; log concentration [M] -7.78915) was 89.5849, the viability at […] ([1]; log concentration [M] -8.06399) was 103% and the Cell viability ([1]; log concentration [M] -8.06399) was 99.4914. For the same compound, the viability at 0.005 µM ([1]; log concentration [M] -8.30103) was 99.7%, the Cell viability ([1]; log concentration [M] -8.30103) was 88.3293 and the viability at 0.0021 µM ([1]; log concentration [M] -8.67778) was 100%. For the same compound, the Cell viability ([1]; log concentration [M] -8.67778) was 90.0519, the “outcome of ITC titration” value [2] was “low solubility in the buffer system” and the “outcome of ITC titration” value ([2]; listed as 10O5) was “induced protein precipitation”. The “NanoBRET signal / tracer displacement” value [3] was “No displacement”, the “NanoBRET signal / tracer displacement” value [4] was “No displacement” and the U2OS cell growth ([5]; 100 nM, time 0 h, listed as 10O5) was 16.9992 and 15.7304 and 22.471. The U2OS cell growth ([5]; 100 nM, time 2 h, listed as 10O5) was 30.0536 and 23.3693 and 30.9556, the U2OS cell growth ([5]; 100 nM, time 4 h, listed as 10O5) was 26.8783 and 18.0548 and 26.389 and the U2OS cell growth ([5]; 100 nM, time 6 h, listed as 10O5) was 32.427 and 24.5344 and 29.4691. The U2OS cell growth ([5]; 500 nM, time 0 h, listed as 10O5) was 22.1626 and 25.7214 and 24.1436, the U2OS cell growth ([5]; 500 nM, time 2 h, listed as 10O5) was 30.4879 and 29.4429 and 31.5602 and the U2OS cell growth ([5]; 500 nM, time 4 h, listed as 10O5) was 27.0048 and 26.6361 and 29.202. For the same compound, the U2OS cell growth ([5]; 500 nM, time 6 h, listed as 10O5) was 26.7875 and 33.8054 and 33.8287, the U2OS cell growth ([5]; 500 nM, time 8 h) was 33.7413 and the U2OS cell growth ([5]; 500 nM, time 10 h) was 39.0222. For the same compound, the U2OS cell growth ([5]; 1 uM, time 0 h, listed as 10O5) was 28.8978 and 24.3384 and 24.2638, the U2OS cell growth ([5]; 1 uM, time 2 h, listed as 10O5) was 33.9341 and 25.1214 and 23.3142 and the U2OS cell growth ([5]; 1 uM, time 4 h, listed as 10O5) was 34.8975 and 25.1189 and 23.4121. The U2OS cell growth ([5]; 1 uM, time 6 h, listed as 10O5) was 36.2035 and 30.6761 and 30.4629, the U2OS cell growth ([5]; 1 uM, time 8 h, listed as 10O5) was 37.0589 and 28.0551 and 29.5538 and the U2OS cell growth ([5]; 1 uM, time 10 h, listed as 10O5) was 40.6527 and 32.3336 and 34.2928. For the same compound, the U2OS cell growth ([5]; 1 uM, time 12 h, listed as 10O5) was 39.0418, the U2OS cell growth ([5]; 3 uM, time 0 h, listed as 10O5) was 28.8395 and 29.1487 and 34.5356 and the U2OS cell growth ([5]; 3 uM, time 2 h, listed as 10O5) was 33.8786 and 32.6567 and 36.3335. For the same compound, the U2OS cell growth ([5]; 3 uM, time 4 h, listed as 10O5) was 28.2335 and 26.3394 and 40.569, the U2OS cell growth ([5]; 3 uM, time 6 h, listed as 10O5) was 37.1398 and 33.8156 and 39.1483 and the U2OS cell growth ([5]; 3 uM, time 8 h, listed as 10O5) was 34.9068 and 36.3207 and 39.5562. The U2OS cell growth ([5]; 3 uM, time 10 h, listed as 10O5) was 41.312 and 42.3386 and 42.5694, the U2OS cell growth ([5]; 3 uM, time 12 h, listed as 10O5) was 40.1427 and the U2OS cell growth ([5]; 5 uM, time 0 h, listed as 10O5) was 31.0558 and 26.3625 and 29.5321. The U2OS cell growth ([5]; 5 uM, time 2 h, listed as 10O5) was 36.0354 and 28.3396 and 34.1005, the U2OS cell growth ([5]; 5 uM, time 4 h, listed as 10O5) was 37.417 and 32.4374 and 40.4577 and the U2OS cell growth ([5]; 5 uM, time 6 h, listed as 10O5) was 38.4528 and 33.2156 and 39.1806. The U2OS cell growth ([5]; 5 uM, time 8 h, listed as 10O5) was 37.3748 and 33.0274 and 39.2246, the U2OS cell growth ([5]; 5 uM, time 10 h, listed as 10O5) was 41.1433 and 35.6497 and 45.4152 and the U2OS cell growth ([5]; 10 uM, time 0 h, listed as 10O5) was 20.3118 and 28.5412 and 26.4263. For the same compound, the U2OS cell growth ([5]; 10 uM, time 2 h, listed as 10O5) was 23.006 and 27.9929 and 32.8968, the U2OS cell growth ([5]; 10 uM, time 4 h, listed as 10O5) was 30.6648 and 35.9437 and 41.1141 and the U2OS cell growth ([5]; 10 uM, time 6 h, listed as 10O5) was 29.7401 and 38.8973 and 43.1309. For the same compound, the U2OS cell growth ([5]; 10 uM, time 8 h, listed as 10O5) was 28.0658 and 36.5966 and 41.861 and the U2OS cell growth ([5]; 10 uM, time 10 h, listed as 10O5) was 30.9876 and 40.5217 and 49.4843.
